Assay results published in ChEMBL document CHEMBL1136212, “Structure-based design of 2-arylamino-4-cyclohexylmethyl-5-nitroso-6-aminopyrimidine inhibitors of cyclin-dependent kinases 1 and 2” (Bioorg Med Chem Lett, 2003).

Key:
[1] = target: Cyclin-dependent kinase 2 (Homo sapiens, UniProt P24941)
[2] = target: Cyclin-dependent kinase 1 (Homo sapiens, UniProt P06493)
Sequence of Cyclin-dependent kinase 1 (P06493 whole entry): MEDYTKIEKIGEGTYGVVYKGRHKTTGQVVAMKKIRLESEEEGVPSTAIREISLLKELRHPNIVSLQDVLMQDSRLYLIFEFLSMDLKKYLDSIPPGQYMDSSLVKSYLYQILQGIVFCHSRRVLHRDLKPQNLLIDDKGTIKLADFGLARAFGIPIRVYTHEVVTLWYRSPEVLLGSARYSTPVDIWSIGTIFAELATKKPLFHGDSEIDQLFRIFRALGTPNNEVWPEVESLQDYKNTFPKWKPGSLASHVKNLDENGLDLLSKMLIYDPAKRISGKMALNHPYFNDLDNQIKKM
Description: Inhibition of Cyclin-dependent kinase 1 (CDK1) at 12.5 uM ATP

Row | Compound | IC50 [1] | IC50 [2]
1 | Nc1nc(Nc2ccc(S(N)(=O)=O)cc2)nc(OCC2CCCCC2)c1N=O | 1.1 nM | 5 nM
2 | Nc1nc(Nc2cccc(Br)c2)nc(OCC2CCCCC2)c1N=O | 500 nM | 800 nM
3 | COc1ccc(Nc2nc(N)c(N=O)c(OCC3CCCCC3)n2)cc1 | 220 nM | 230 nM
4 | CSc1ccc(Nc2nc(N)c(N=O)c(OCC3CCCCC3)n2)cc1 | 120 nM | 220 nM
5 | NC(=O)c1ccc(Nc2nc(N)cc(OCC3CCCCC3)n2)cc1 | 59000 nM | 63000 nM
6 | Nc1cc(OCC2CCCCC2)nc(Nc2ccc(S(N)(=O)=O)cc2)n1 | 2900 nM | 5300 nM
